The structures appear in SMILES notation.

For 16 compounds, IC50 and EC50 results are on record in US20240217951A1, “PCSK9 INHIBITORS AND METHODS OF USE THEREOF” (AstraZeneca AB, priority 2022, published 2024).

Assay [1] deals with T1, potassium ion channel hERG (human Ether-á-go-go-Related Gene) (Homo sapiens, UniProt Q12809).
T1 construct: expressed in transfected cells; host or cells: Chinese hamster ovary K1 (CHO)
Briefly: Assay 5 - hERG assay (SyncroPatch 384PE patch clamp, CHO cells). Type of assay: cell-based. The following applies: geometric mean; CHO cells over-expressing hERG; read-out: Assay 5 (hERG Hu CHO IF EPh CR-Syncro) GMean IC50. In outline: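 Automated high-throughput patch clamp on CHO-K1 cells overexpressing hERG at room temperature, KF/KCl internal with escin, NMDG-containing external at pH 7.4. Six-point cumulative compound addition, 0.33% DMSO final; wells kept only with seal >30 MΩ, Z′ >0.4 and current >0.2 nA.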
In general terms: The hERG channel carries a current that helps repolarise heart muscle cells.

Assay [2] addresses GSK3β (Glycogen synthase kinase-3 beta) (Homo sapiens, UniProt P49841). Nature of the assay: Assay 6 - GSK3β assay (ThermoFisher Z-Lyte). Type of assay: biochemical. Conditions: geometric mean; ATP Conc: 10 μM; read-out: Assay 6 (GSK3β FRET-Z-Lyte CR) GMean IC50 (μM) ATP Conc: 10. In outline: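 Z-Lyte fluorescence kinase assay with 0.22-0.92 ng GSK3β and 2 μM Ser/Thr 09 peptide in 50 mM HEPES pH 7.5, 10 mM MgCl2, 1 mM EGTA, 0.01% BRIJ-35. Kinase reaction 60 min at room temperature, then 60 min development. 10-point 3-fold titration from 10 μM in 1% DMSO, fitted to a sigmoidal dose-response curve.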

Assay [3] concerns the target T2, PCSK9 (Homo sapiens, UniProt Q8NBP7, G670E/V474I). Nature of the assay: biochemical.
For assay [4], the target named is T2, PCSK9. Briefly: Assay 3 - PCSK9 LDL-C uptake assay in HepG2 cells. Type of assay: cell-based. Also noted: TEV cleavage site (C); His6 (C); host or cells: added to HepG2 cells (ATCC #HB-8065). Conditions: 125 nM PCSK9, pHrodo Red-LDL, read-out: Assay 3 LDL uptake potency. The text has this: Assay 3—PCSK9 LDL-C Uptake Assay
This assay measures for PCSK9 antagonist activity based on a test compound's capacity to restore LDL-C-uptake in HepG2 cells. The assay is based on exogenous PCSK9 and LDL-C complexed with a pH-sensitive dye. Outside the cells, at neutral pH, the pHrodo Red-LDL is dimly fluorescent but upon LDLR mediated endocytosis it fluoresces brightly. PCSK9 traffics the LDLR to intracellular degradation and reduces uptake of LDL-C. Inhibition of PCSK9 reduces LDLR degradation and the increased LDL-C uptake is quantified by fluorescence microscopy.
Preparation of Assay Reagents
Cell medium: MEM supplemented with 10% FBS, 1×NEAA and Sodium Pyruvate Assay medium: OptiMem supplemented with penicillin/streptomycin
Cells: HepG2 (ATCC #HB-8065)
Step by Step Protocol for Running the Assay:
• 1. Cryopreserved HepG2 cells were thawed in assay medium and centrifuged for 5 min at 250 g. Supernatant was discarded and the cell pellet resuspended in cell medium and counted with a Nucleocounter. Cells were again centrifuged 5 min at 250 g and the pellet was resuspended to 500000 cells/mL in assay medium. • 2. 20 μL of above cell mix was dispensed into black pclear TC treated 384 well plates with Multidrop Combi and left at room temperature for 20 minutes. • 3. Plates were incubated at 37° C., 5% CO2 for 24 h
• 1. Test compounds were prepared in concentration response in DMSO with a half-log dilution factor in DMSO in Echo 384 LDV plates starting at 10 mM. • 2. 30 nL of above test compounds were dispensed with Echo 655 to cells for a top concentration of 10 μM • 3. 10 μL PCSK9 in assay medium was dispensed to cells with Multidrop Combi for 125 nM final concentration in the wells. • 4. Plates were incubated at 37° C., 5% CO2 for 24 h
• 1. 10 μL pHrodo Red-LDL in assay medium was dispensed to cells with Multidrop Combi for 6 μg/mL • 2. Plates were incubated at 37° C., 5% CO2 and imaged with the Incucyte S3 after 4 h and 24 h
Image data was processed using Incucyte 2021, a software to identify cells and red fluorescent intensity. Screener was used to further process data. Data was normalized as % effect of the signal between median values of the on-plate controls of DMSO and 100 nM Evolocumab according to the formula % effect=−100*(x−DMSO)/(Evolocumab−DMSO) where x equals the measured signal. Concentration response data of the normalized values were fitted using a four-parameter logistic fit.

T1 sequence (Q12809 whole entry): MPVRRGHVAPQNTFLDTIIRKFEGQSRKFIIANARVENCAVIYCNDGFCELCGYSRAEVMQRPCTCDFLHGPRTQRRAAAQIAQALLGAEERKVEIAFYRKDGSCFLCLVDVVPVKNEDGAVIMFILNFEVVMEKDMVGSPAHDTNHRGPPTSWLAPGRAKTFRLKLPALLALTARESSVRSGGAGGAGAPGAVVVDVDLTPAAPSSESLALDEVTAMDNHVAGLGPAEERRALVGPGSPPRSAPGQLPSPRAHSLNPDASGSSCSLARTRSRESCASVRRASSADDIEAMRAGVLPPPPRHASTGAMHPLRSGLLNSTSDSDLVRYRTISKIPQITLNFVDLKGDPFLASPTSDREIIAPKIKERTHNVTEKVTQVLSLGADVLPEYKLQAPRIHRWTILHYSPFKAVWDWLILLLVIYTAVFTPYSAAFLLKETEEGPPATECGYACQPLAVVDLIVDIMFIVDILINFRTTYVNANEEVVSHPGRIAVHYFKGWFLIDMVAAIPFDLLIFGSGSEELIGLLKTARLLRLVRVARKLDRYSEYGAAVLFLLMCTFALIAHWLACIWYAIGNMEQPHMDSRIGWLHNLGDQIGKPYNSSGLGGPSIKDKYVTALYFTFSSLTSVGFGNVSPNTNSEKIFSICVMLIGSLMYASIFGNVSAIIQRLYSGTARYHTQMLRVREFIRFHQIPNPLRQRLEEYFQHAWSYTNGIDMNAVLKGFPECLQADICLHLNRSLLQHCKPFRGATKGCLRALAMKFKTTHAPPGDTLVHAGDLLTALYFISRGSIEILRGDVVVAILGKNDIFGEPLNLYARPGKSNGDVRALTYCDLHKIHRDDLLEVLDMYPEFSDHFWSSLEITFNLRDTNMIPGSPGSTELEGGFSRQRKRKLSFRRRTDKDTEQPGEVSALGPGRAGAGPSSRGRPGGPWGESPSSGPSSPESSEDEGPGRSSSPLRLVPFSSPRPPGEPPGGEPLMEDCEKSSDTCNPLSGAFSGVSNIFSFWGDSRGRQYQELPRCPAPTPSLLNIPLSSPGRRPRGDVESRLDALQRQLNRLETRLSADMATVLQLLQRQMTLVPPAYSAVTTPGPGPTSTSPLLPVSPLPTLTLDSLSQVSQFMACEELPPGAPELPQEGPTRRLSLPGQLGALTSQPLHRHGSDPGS
Sequence of GSK3β (Glycogen synthase kinase-3 beta) (P49841 whole entry): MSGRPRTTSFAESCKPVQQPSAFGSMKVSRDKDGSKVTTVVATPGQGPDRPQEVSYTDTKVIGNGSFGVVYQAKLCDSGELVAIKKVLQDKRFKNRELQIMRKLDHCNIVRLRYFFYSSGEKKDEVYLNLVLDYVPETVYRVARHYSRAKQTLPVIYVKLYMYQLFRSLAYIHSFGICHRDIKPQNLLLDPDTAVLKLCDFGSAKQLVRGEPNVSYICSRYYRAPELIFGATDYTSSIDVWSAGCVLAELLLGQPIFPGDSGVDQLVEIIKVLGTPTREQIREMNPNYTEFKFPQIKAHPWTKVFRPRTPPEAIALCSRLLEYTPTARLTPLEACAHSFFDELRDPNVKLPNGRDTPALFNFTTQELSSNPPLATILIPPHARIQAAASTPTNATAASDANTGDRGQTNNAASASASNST
T2 sequence (Q8NBP7 with tags, fused parts or gaps V474I/G670E): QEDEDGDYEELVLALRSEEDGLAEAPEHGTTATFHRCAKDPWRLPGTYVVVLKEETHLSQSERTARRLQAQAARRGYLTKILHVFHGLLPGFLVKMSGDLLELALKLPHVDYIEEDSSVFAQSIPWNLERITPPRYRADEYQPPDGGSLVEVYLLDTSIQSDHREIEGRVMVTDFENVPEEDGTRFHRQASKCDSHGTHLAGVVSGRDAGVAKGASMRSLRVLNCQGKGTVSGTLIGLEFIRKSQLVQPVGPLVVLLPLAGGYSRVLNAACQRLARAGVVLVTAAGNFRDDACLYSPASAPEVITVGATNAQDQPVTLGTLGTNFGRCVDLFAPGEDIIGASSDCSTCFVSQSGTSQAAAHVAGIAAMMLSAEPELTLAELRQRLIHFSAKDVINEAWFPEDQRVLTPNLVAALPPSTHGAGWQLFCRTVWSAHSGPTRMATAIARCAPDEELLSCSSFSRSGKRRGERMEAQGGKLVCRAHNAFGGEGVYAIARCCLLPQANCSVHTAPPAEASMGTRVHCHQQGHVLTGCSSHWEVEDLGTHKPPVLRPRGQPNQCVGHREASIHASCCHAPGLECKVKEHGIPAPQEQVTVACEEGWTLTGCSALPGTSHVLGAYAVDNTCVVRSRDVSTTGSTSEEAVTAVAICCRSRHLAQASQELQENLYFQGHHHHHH

In the case of `Cc1cnc(N[C@H]2CC[C@H](Nc3ccc(-n4c(=O)n(C)c5ccc(C#N)cc54)cn3)C2)cn1` [Example 215, 1-Methyl-3-(6-(((1S,3S)-3-((5-methylpyrazin-2-yl)amino)cyclopentyl)amino)pyridin-3-yl)-2-oxo-2,3-dihydro-1H-benzo[d]imidazole-5-carbonitrile], the IC50 – broadly, the concentration at which inhibition is half-maximal – in assay [1] is 16 µM; in assay [2] it was above 10 µM; in assay [3] it was 0.001 µM. Moreover, the EC50 in assay [4] is 0.1 µM.

`O=c1[nH]c2ccccc2n1-c1ccc(N[C@H]2CC[C@H](Nc3cnc(Cl)cn3)C2)nc1` [Example 31, 1-(6-(((1S,3S)-3-((5-Chloropyrazin-2-yl)amino)cyclopentyl)amino)pyridin-3-yl)-1,3-dihydro-2H-benzo[d]imidazol-2-one]: the IC50 is 8.2 µM in assay [1], above 10 µM in assay [2] and 0.0037 µM in assay [3]. Also, the EC50 in assay [4] stood at 0.2 µM.

Turning to `O=c1ccc(-c2nnn[nH]2)cn1-c1ccc(N[C@H]2CC[C@H](Nc3cnc(OC(F)F)cn3)C2)nc1` [Example 178, 6′-(((1S,3S)-3-((5-(Difluoromethoxy)pyrazin-2-yl)amino)cyclopentyl)amino)-5-(1H-tetrazol-5-yl)-2H-[1,3′-bipyridin]-2-one], the IC50 in assay [1] was above 40.1 µM; in assay [2], above 10 µM; in assay [3], 0.01 µM. In assay [4], the EC50 is 0.1 µM.

`Cc1ncc(N[C@H]2CC[C@H](Nc3ccc(-n4c(=O)n(C)c5cccnc54)cn3)C2)nc1C` [Example 21, 3-(6-(((1S,3S)-3-((5,6-Dimethylpyrazin-2-yl)amino)cyclopentyl)amino)pyridin-3-yl)-1-methyl-1,3-dihydro-2H-imidazo[4,5-b]pyridin-2-one]: the IC50 was 33.2 µM in assay [1], above 10 µM in assay [2] and 0.011 µM in assay [3]. Further, the EC50 in assay [4] was 0.1 µM.

For the compound `Cc1cnc(N[C@H]2CC[C@H](Nc3ccc(-n4nccc(Cl)c4=O)cn3)C2)cn1` [Example 232, 4-Chloro-2-(6-(((1S,3S)-3-((5-methylpyrazin-2-yl)amino)cyclopentyl)amino)pyridin-3-yl)pyridazin-3 (2H)-one], the IC50 is 39.9 µM in assay [1], above 10 µM in assay [2] and 0.0037 µM in assay [3]. Moreover, the EC50 in assay [4] was 0.5 µM.

On to `O=c1ccc2cccnc2n1-c1ccc(N[C@H]2CC[C@H](Nc3cnc(OC(F)F)cn3)C2)nc1` [Example 87, 1-(6-(((1S,3S)-3-((5-(Difluoromethoxy)pyrazin-2-yl)amino)cyclopentyl)amino)pyridin-3-yl)-1,8-naphthyridin-2 (1H)-one], for which the figures for the IC50 in assay [1], in assay [2] and in assay [3] were 18.1 µM, above 10 µM and 0.0092 µM, respectively. For the same compound, the EC50 in assay [4] was 0.1 µM.

`Cc1ncc(N[C@H]2CC[C@H](Nc3ccc(-n4cc(-c5nnn[nH]5)ccc4=O)cn3)C2)nc1C` [Example 176, 6′-(((1S,3S)-3-((5,6-Dimethylpyrazin-2-yl)amino)cyclopentyl)amino)-5-(1H-tetrazol-5-yl)-2H-[1,3′-bipyridin]-2-one]: the IC50 in assay [1] was above 40.1 µM; in assay [2], above 10 µM; in assay [3], 0.012 µM. In addition, the EC50 in assay [4] came to 0.1 µM.

Take `Cc1cccn(-c2ccc(N[C@H]3CC[C@H](Nc4cnc(OC(F)F)cn4)C3)nc2)c1=O` [Example 84, 6′-(((1S,3S)-3-((5-(Difluoromethoxy)pyrazin-2-yl)amino)cyclopentyl)amino)-3-methyl-2H-[1,3′-bipyridin]-2-one]: the figures for the IC50 in assay [1], in assay [2] and in assay [3] were 6.9 µM, above 10 µM and 0.011 µM, respectively. In addition, in assay [4], the EC50 is 0.7 µM.

As to `Cc1ncc(N[C@H]2CC[C@H](Nc3ccc(-n4cccc(C#N)c4=O)cn3)C2)nc1C` [Example 23, 6′-(((1S,3S)-3-((5,6-Dimethylpyrazin-2-yl)amino)cyclopentyl)amino)-2-oxo-2H-[1,3′-bipyridine]-3-carbonitrile], the figures for the IC50 in assay [1], in assay [2] and in assay [3] were 35.9 µM, above 10 µM and 0.0088 µM, respectively. The EC50 in assay [4] was 0.7 µM.

Regarding `Cn1c(=O)n(-c2ccc(N[C@H]3CC[C@H](Nc4cnc(Cl)cn4)C3)nc2)c2ncccc21` [Example 98, 3-(6-(((1S,3S)-3-((5-Chloropyrazin-2-yl)amino)cyclopentyl)amino)pyridin-3-yl)-1-methyl-1,3-dihydro-2H-imidazo[4,5-b]pyridin-2-one], the IC50 in assay [1] is 10.8 µM; in assay [2], above 10 µM; in assay [3], 0.0042 µM. Moreover, in assay [4], the EC50 turned out to be 0.8 µM.

Regarding `Cc1ncc(N[C@H]2CC[C@H](Nc3ccc(-n4c(=O)ccc5cccnc54)cn3)C2)nc1C` [Example 20, 1-(6-(((1S,3S)-3-((5,6-Dimethylpyrazin-2-yl)amino)cyclopentyl)amino)pyridin-3-yl)-1,8-naphthyridin-2 (1H)-one], the IC50 is above 40 µM in assay [1], above 10 µM in assay [2] and 0.017 µM in assay [3]. Moreover, the EC50 in assay [4] is 0.1 µM.

As for `O=c1ccc2cccnc2n1-c1ccc(N[C@H]2CC[C@H](Nc3cnc(Cl)cn3)C2)nc1` [Example 34, 1-(6-(((1S,3S)-3-((5-Chloropyrazin-2-yl)amino)cyclopentyl)amino)pyridin-3-yl)-1,8-naphthyridin-2 (1H)-one], the results for the IC50 in assay [1], in assay [2] and in assay [3] were 15.4 µM, above 10 µM and 0.0051 µM, respectively. Further, the EC50 in assay [4] is 0.1 µM.

In the case of `N#Cc1cccn(-c2ccc(N[C@H]3CC[C@H](Nc4cnc(C5CC5)cn4)C3)nc2)c1=O` [Example 104, 6′-(((1S,3S)-3-((5-Cyclopropylpyrazin-2-yl)amino)cyclopentyl)amino)-2-oxo-2H-[1,3′-bipyridine]-3-carbonitrile], the IC50 is 24.2 µM in assay [1], above 10 µM in assay [2] and 0.0058 µM in assay [3]. Moreover, the EC50 in assay [4] stood at 0.5 µM.

Regarding `O=c1ccc2ccccc2n1-c1ccc(N[C@H]2CC[C@H](Nc3cnc(OC(F)F)cn3)C2)nc1` [Example 88, 1-(6-(((1S,3S)-3-((5-(Difluoromethoxy)pyrazin-2-yl)amino)cyclopentyl)amino)pyridin-3-yl)quinolin-2 (1H)-one], the IC50 in assay [1] was 4.5 µM; in assay [2] it was above 10 µM; in assay [3], 0.0045 µM. Moreover, the EC50 in assay [4] is 0.2 µM.

Regarding `Cc1ncc(N[C@H]2CC[C@H](Nc3ccc(-n4cccc(Cl)c4=O)cn3)C2)nc1C` [Example 19, 3-Chloro-6′-(((1S,3S)-3-((5,6-dimethylpyrazin-2-yl)amino)cyclopentyl)amino)-2H-[1,3′-bipyridin]-2-one], the IC50 in assay [1] was 24.6 µM; in assay [2], above 10 µM; in assay [3] it was 0.0053 µM. Moreover, the EC50 in assay [4] is 0.1 µM.

In the case of `Cc1cnc(N[C@H]2CC[C@H](Nc3ccc(-n4cccc(-c5cn[nH]c5)c4=O)cn3)C2)cn1` [Example 204, 6′-(((1S,3S)-3-((5-Methylpyrazin-2-yl)amino)cyclopentyl)amino)-3-(1H-pyrazol-4-yl)-2H-[1,3′-bipyridin]-2-one], the values for the IC50 in assay [1], in assay [2] and in assay [3] were above 40.1 µM, above 10 µM and 0.0035 µM, respectively. Further, the EC50 in assay [4] came out at 0.4 µM.
